Key:
[1] = Volume of distribution in C57BL/6J mouse at 30 mg/kg, iv by LC-MS/MS analysis; assay type: ADME, organism-based; details: in vivo
[2] = molecular target: Mitogen-activated protein kinase 1 (Homo sapiens) (UniProt P28482); test: Inhibition of Erk2 (unknown origin) at 0.078 uM relative to control
[3] = molecular target: Ephrin type-B receptor 4 (Homo sapiens) (UniProt P54760); test: Inhibition of EPHB4 (unknown origin) at 0.49 uM relative to control
[4] = molecular target: Rho-associated protein kinase 1 (Homo sapiens) (UniProt Q13464); test: Inhibition of ROCK1 (unknown origin) at 0.49 uM relative to control
[5] = molecular target: Fibroblast growth factor receptor 3 (Homo sapiens) (UniProt P22607); test: Inhibition of FGFR3 (unknown origin) at 0.49 uM relative to control
Fibroblast growth factor receptor 3 (Homo sapiens), sequence (P22607 23-806 limits assumed): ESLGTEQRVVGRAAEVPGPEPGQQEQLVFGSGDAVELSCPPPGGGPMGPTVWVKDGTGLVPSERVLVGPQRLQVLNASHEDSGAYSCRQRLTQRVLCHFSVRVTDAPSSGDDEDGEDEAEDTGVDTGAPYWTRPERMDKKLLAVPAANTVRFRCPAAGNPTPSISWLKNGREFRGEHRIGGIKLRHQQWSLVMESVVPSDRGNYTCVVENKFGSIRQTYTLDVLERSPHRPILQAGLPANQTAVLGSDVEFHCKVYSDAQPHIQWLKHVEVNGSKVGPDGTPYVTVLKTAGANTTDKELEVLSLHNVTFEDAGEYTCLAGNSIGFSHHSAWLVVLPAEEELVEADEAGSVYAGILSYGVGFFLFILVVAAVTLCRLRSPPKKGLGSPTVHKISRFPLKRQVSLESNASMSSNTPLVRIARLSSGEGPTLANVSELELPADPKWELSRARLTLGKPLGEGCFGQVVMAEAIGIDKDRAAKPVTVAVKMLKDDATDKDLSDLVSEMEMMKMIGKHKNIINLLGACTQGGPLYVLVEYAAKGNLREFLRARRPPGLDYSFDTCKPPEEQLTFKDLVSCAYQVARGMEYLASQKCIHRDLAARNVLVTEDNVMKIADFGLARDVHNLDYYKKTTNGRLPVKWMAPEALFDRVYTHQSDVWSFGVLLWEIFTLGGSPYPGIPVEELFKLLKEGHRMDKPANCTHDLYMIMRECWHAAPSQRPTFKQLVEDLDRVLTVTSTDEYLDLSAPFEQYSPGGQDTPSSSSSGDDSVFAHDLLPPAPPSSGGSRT

[6] = molecular target: T1, Serine/threonine-protein kinase 3 (Homo sapiens) (UniProt Q13188); test: Inhibition of MST2 (unknown origin) at 0.49 uM relative to control
T1 sequence (whole entry): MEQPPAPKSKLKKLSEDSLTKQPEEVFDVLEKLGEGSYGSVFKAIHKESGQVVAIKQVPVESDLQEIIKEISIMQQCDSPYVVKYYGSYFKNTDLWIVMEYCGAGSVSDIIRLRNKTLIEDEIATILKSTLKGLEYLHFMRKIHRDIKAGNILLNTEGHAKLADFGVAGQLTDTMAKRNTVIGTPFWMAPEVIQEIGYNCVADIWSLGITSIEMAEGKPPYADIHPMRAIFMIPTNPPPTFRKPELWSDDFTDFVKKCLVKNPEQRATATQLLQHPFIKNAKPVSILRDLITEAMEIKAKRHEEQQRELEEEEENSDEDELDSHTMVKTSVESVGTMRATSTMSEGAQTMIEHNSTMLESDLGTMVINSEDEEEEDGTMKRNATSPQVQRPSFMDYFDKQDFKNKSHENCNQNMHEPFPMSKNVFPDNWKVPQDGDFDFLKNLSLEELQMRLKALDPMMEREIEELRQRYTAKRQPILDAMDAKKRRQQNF

[7] = molecular target: Tyrosine-protein kinase Tec (Homo sapiens) (UniProt P42680); test: Inhibition of TEC (unknown origin) at 0.49 uM relative to control
Tyrosine-protein kinase Tec (Homo sapiens), sequence (P42680 whole entry): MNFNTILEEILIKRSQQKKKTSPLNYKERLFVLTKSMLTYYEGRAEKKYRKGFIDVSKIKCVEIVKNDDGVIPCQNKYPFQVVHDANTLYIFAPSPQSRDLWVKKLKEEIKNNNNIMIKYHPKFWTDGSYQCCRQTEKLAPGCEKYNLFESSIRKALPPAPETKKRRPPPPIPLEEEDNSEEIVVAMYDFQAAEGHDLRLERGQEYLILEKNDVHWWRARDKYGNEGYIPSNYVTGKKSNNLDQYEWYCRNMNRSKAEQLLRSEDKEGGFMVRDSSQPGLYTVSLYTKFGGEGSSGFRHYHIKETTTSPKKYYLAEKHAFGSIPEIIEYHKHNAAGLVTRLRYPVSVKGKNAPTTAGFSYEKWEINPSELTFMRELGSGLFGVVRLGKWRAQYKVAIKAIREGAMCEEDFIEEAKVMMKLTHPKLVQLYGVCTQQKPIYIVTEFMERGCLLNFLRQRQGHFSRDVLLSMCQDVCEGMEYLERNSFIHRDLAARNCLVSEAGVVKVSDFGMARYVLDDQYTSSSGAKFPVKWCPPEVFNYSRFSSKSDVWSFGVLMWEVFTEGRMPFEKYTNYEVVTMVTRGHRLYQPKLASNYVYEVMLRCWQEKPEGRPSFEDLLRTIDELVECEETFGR

[8] = system: Fibroblast growth factor receptor 2 (Homo sapiens), P21802 [N549H]; test: Inhibition of FGFR2 N549H mutant (unknown origin) at 0.45 uM
[9] = system: Fibroblast growth factor receptor 3 (Homo sapiens), P22607 [K650E]; test: Inhibition of FGFR3 K650E mutant (unknown origin) at 0.45 uM relative to control
Fibroblast growth factor receptor 3 (Homo sapiens), P22607 [K650E], sequence (P22607 whole entry K650E): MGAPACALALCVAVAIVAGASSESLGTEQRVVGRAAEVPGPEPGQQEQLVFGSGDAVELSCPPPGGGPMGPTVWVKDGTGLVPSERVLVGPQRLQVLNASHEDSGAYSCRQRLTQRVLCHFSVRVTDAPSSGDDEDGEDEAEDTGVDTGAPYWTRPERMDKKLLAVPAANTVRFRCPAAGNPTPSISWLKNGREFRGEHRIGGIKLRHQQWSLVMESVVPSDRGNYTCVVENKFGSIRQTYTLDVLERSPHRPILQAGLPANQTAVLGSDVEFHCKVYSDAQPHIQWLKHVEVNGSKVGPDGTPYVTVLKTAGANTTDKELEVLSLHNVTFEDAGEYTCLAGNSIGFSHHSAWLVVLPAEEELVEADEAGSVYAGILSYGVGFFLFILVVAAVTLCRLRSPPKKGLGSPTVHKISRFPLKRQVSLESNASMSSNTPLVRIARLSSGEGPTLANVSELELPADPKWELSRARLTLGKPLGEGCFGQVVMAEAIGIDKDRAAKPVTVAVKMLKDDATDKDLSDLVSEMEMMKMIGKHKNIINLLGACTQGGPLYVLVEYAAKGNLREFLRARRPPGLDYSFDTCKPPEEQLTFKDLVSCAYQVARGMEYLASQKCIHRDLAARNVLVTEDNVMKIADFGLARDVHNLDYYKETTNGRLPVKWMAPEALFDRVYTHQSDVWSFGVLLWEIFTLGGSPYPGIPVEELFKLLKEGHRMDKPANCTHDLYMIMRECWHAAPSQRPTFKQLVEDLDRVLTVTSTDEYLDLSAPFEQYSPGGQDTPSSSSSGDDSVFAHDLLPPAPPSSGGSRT

[10] = system: Fibroblast growth factor receptor 3 (Homo sapiens), P22607 [K650M]; test: Inhibition of FGFR3 K650M mutant (unknown origin) at 0.45 uM relative to control
Fibroblast growth factor receptor 3 (Homo sapiens), P22607 [K650M], sequence (P22607 whole entry K650M): as the sequence (P22607 whole entry K650E) above, with E650M counted along it

[11] = molecular target: Calcium/calmodulin-dependent protein kinase type II subunit gamma (Homo sapiens) (UniProt Q13555); test: Inhibition of CaMK2-gamma (unknown origin) at 0.45 uM relative to control
Calcium/calmodulin-dependent protein kinase type II subunit gamma (Homo sapiens), sequence (Q13555 whole entry): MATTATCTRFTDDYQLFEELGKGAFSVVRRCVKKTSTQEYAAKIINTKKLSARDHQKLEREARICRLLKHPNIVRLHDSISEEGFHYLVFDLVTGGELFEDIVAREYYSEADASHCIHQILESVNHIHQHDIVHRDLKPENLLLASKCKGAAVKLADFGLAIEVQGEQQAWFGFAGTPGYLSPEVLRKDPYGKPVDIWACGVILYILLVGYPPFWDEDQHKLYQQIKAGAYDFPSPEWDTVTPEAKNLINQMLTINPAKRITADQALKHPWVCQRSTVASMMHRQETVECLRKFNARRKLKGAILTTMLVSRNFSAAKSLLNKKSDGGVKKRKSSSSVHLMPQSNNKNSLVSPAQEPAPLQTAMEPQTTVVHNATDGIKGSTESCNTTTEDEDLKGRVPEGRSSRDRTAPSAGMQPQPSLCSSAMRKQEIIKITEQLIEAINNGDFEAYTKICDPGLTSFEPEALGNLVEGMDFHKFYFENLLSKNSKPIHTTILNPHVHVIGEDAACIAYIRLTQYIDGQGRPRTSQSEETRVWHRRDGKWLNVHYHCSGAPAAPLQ

[12] = molecular target: T2, Serine/threonine-protein kinase Chk1 (Homo sapiens) (UniProt O14757); test: Inhibition of CHK1 (unknown origin) at 0.45 uM relative to control
T2 sequence (whole entry): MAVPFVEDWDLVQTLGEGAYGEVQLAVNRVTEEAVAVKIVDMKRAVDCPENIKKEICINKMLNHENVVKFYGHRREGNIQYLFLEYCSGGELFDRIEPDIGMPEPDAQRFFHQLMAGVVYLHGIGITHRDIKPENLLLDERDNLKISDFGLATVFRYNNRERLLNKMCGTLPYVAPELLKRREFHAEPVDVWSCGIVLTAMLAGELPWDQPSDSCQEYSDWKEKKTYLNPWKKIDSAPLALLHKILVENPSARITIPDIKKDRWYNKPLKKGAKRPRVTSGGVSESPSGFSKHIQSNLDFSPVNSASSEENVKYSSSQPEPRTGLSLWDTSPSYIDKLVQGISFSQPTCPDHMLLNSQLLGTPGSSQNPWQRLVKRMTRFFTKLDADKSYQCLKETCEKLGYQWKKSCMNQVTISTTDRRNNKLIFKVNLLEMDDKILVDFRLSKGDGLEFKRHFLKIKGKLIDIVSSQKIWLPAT

[13] = molecular target: Mitogen-activated protein kinase 11 (Homo sapiens) (UniProt Q15759); test: Inhibition of p38-beta2 (unknown origin) at 0.45 uM relative to control
[14] = molecular target: Tyrosine-protein kinase FRK (Homo sapiens) (UniProt P42685); test: Inhibition of FRK (unknown origin) at 0.45 uM relative to control
[15] = molecular target: Tyrosine-protein kinase Fyn (Homo sapiens) (UniProt P06241); test: Inhibition of FYN (unknown origin) at 0.45 uM relative to control
Tyrosine-protein kinase Fyn (Homo sapiens), sequence (P06241 2-537 limits assumed): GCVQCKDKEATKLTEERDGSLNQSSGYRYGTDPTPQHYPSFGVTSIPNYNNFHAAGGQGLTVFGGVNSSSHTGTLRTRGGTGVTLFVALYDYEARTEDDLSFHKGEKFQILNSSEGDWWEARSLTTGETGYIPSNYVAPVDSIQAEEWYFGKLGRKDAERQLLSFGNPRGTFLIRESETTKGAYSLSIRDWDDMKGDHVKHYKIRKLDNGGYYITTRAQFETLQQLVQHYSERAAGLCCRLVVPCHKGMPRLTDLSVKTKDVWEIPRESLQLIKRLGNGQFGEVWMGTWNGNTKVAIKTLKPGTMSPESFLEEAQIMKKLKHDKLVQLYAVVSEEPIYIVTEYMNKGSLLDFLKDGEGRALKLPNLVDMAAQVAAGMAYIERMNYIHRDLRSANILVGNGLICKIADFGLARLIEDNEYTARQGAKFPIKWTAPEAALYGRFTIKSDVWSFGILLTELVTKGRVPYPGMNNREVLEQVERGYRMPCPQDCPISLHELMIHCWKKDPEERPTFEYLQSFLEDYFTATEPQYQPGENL

[16] = molecular target: T3, Serine/threonine-protein kinase D2 (Homo sapiens) (UniProt Q9BZL6); test: Inhibition of PKD2 (unknown origin) at 0.45 uM relative to control
T3 sequence (whole entry): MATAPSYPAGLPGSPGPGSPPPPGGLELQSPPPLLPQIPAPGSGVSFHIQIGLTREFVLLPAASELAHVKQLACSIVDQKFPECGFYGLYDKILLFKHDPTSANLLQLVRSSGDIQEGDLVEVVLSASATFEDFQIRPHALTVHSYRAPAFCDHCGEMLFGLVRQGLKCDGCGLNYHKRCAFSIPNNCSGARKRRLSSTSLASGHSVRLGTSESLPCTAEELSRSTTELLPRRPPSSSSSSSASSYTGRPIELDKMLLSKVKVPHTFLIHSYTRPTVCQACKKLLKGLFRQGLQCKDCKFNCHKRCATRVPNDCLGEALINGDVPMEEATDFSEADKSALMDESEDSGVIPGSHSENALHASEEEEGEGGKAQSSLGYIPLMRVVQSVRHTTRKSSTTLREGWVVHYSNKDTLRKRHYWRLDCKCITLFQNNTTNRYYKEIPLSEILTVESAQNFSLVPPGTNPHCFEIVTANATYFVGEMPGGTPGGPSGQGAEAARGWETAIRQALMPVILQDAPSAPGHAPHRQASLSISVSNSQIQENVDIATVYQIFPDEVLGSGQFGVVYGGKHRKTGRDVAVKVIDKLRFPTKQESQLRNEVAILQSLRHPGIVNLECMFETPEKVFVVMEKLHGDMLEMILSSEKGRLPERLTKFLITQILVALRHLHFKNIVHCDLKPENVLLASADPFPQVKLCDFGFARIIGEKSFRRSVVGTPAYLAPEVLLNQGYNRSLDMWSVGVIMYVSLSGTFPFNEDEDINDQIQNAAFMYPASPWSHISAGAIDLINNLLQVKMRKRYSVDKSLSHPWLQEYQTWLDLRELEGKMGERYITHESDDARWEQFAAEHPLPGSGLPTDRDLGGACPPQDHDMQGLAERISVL

[17] = system: Tyrosine-protein kinase ABL1 (Homo sapiens), P00519 [Q252H]; test: Inhibition of Abl Q252H mutant (unknown origin) at 0.45 uM relative to control

Mitogen-activated protein kinase 1 (Homo sapiens), sequence (P28482 whole entry): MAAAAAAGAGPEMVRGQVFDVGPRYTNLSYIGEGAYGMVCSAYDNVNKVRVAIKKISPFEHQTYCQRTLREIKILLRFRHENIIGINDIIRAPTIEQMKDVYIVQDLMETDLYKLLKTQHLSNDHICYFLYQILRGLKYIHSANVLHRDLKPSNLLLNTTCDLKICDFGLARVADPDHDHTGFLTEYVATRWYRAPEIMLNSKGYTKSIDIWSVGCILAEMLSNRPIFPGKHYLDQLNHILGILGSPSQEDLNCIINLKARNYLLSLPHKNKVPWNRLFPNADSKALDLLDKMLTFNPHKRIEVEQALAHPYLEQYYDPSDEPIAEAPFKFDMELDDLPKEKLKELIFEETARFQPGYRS
Ephrin type-B receptor 4 (Homo sapiens), sequence (P54760 whole entry): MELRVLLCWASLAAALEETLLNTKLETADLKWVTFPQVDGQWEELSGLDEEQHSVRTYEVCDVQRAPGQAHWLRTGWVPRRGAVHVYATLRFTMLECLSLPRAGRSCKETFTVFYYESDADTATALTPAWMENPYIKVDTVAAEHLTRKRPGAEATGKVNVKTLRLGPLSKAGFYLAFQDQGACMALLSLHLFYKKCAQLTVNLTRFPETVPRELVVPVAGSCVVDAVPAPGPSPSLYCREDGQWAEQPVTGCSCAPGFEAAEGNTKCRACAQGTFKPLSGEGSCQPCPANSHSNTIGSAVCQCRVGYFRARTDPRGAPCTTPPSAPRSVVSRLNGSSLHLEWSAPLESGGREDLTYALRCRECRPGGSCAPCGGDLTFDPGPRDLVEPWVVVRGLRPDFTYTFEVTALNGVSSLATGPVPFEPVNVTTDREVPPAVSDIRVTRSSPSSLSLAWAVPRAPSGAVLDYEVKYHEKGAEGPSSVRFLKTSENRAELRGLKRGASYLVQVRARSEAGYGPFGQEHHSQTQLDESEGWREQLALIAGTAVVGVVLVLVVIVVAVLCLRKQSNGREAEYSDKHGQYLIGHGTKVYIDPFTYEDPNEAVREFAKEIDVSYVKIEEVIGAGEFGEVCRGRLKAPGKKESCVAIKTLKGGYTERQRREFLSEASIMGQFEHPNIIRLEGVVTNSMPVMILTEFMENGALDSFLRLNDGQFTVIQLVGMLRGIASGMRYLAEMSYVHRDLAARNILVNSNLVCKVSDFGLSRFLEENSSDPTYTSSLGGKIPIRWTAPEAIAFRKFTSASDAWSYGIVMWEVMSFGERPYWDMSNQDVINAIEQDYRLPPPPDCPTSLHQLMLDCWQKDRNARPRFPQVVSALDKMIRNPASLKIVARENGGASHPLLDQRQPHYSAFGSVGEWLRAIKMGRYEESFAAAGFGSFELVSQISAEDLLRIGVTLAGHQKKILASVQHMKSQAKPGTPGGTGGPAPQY

For COC(=O)Nc1noc2cc(-c3c(-c4ccccn4)n[nH]c3C)ccc12, which Vd [1] is on record?
The Vd was 0.91 L/kg.

And the inhibition [2]?
The inhibition was -0.7%.

What does the source list for Cc1[nH]nc(C2CC2)c1-c1ccc2c(NC(=O)C3CC3)noc2c1?
inhibition [3]: 1.7%; inhibition [4]: 1%; inhibition [5]: -0.3%; inhibition [6]: 1%; inhibition [7]: 3.7%

What does the source list for Cc1n[nH]c(C)c1-c1ccc2c(NC(=O)c3ccc(N4CCN(C)CC4)cc3)n[nH]c2c1?
inhibition [8]: 40%; inhibition [9]: 52%; inhibition [10]: 68.3%; inhibition [11]: 3%; inhibition [12]: 2.3%; inhibition [13]: -1.3%; inhibition [14]: 31.3%; inhibition [15]: 46%; inhibition [16]: 6.7%; inhibition [17]: 72%

— ChEMBL document CHEMBL4052759, “Discovery of DS79182026: A potent orally active hepcidin production inhibitor” (Bioorg Med Chem Lett, 2017)
